This note sets out measurements from PubChem BioAssay AID192 (DTP/NCI, 2004).

Several values for one entry are separate records, joined by “and”; a condition that tells them apart may be missing. Identical values can stand only once. Inconclusive results and toxic doses are left out. Square brackets hold non-standard residues; d marks the D form. Peptide text beside a SMILES is read from it. * marks the point of attachment. ξ: configuration not given here. Boc = CC(C)(C)OC(=O)*; ξP = O=C(O)C1CCCN1

In this assay the test system is BDF1 mice, B16 melanoma ip, median survival T/C. The experiment in a line: NCI In Vivo Anticancer Drug Screen. Data for tumor model B16 Melanoma (intraperitoneal) in B6D2F1 (BDF1) mice. To be noted: endpoint: median survival time, higher = longer survival. In outline: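 The ratio T/C compares compound-treated mice with vehicle-treated controls, using survival or tumor size as the endpoint in a transplantable tumor model.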

[1] abbreviates: dose: 100.0 mg/kg/injection, schedule: Q01DX009 (ip), vehicle: Klucel (hydroxypropylcellulose) (HPC).
Where [2] appears, read: dose: 25.0 mg/kg/injection, schedule: Q01DX009 (ip), vehicle: Klucel (hydroxypropylcellulose) (HPC).
Setting [3] is: dose: 50.0 mg/kg/injection, schedule: Q01DX009 (ip), vehicle: Klucel (hydroxypropylcellulose) (HPC).
Setting [4] is: dose: 75.0 mg/kg/injection, schedule: Q01DX009 (ip), vehicle: Klucel (hydroxypropylcellulose) (HPC).
Setting [5] is: dose: 150.0 mg/kg/injection, schedule: Q01DX009 (ip), vehicle: Klucel (hydroxypropylcellulose) (HPC).
[6] abbreviates: dose: 12.5 mg/kg/injection, schedule: Q01DX009 (ip), vehicle: Klucel (hydroxypropylcellulose) (HPC).
The mark [7] stands for this setting: dose: 6.25 mg/kg/injection, schedule: Q01DX009 (ip), vehicle: saline with Tween-80.
[8] abbreviates: dose: 12.5 mg/kg/injection, schedule: Q01DX009 (ip), vehicle: saline with Tween-80.
The mark [9] stands for this setting: dose: 25.0 mg/kg/injection, schedule: Q01DX009 (ip), vehicle: saline with Tween-80.
Setting [10] is: dose: 50.0 mg/kg/injection, schedule: Q01DX009 (ip), vehicle: saline with Tween-80.
Where [11] appears, read: dose: 100.0 mg/kg/injection, schedule: Q01DX009 (ip), vehicle: saline with Tween-80.
[12] abbreviates: dose: 200.0 mg/kg/injection, schedule: Q01DX009 (ip), vehicle: saline with Tween-80.
[13] abbreviates: dose: 50.0 mg/kg/injection, schedule: Q01DX009 (ip), vehicle: saline.
Setting [14] is: dose: 100.0 mg/kg/injection, schedule: Q01DX009 (ip), vehicle: saline.
Setting [15] is: dose: 200.0 mg/kg/injection, schedule: Q01DX009 (ip), vehicle: saline.
Setting [16] is: dose: 400.0 mg/kg/injection, schedule: Q01DX009 (ip), vehicle: saline.
[17] abbreviates: dose: 6.25 mg/kg/injection, schedule: Q01DX009 (ip), vehicle: Klucel (hydroxypropylcellulose) (HPC).

As to `CCC(=O)C(CC)c1ccc(OC)cc1OC` (centres undefined), the T/C is 96 % of control under setting [1]; 103 % of control (dose: 200.0 mg/kg/injection, schedule: Q01DX009 (ip), vehicle: Klucel (hydroxypropylcellulose) (HPC)); 100 % of control (dose: 400.0 mg/kg/injection, schedule: Q01DX009 (ip), vehicle: Klucel (hydroxypropylcellulose) (HPC)).
In the case of `CNc1ccc(/C=C2\C=Cc3ccccc32)cc1`, the T/C (dose: 12.5 mg/kg/injection, schedule: Q01DX009 (ip), vehicle: gum acacia) is 104 % of control; the T/C under setting [2] is 109 % of control; the T/C (dose: 25.0 mg/kg/injection, schedule: Q01DX009 (ip), vehicle: gum acacia) was 91 % of control; the T/C under setting [3] is 112 % of control; the T/C (dose: 50.0 mg/kg/injection, schedule: Q01DX009 (ip), vehicle: gum acacia) is 102 % of control.
Take `CCCCCC#CC(=O)O`: the T/C runs as follows: under setting [4], 95 % of control; under setting [5], 86 % of control.
For the compound `CCCCCCCCCCCCCC(=O)CCC`, the T/C reads like this: under setting [2], 105 % of control; under setting [3], 101 % of control; (dose: 100.0 mg/kg/injection, schedule: Q01DX009 (ip), vehicle: other) 88 % of control.
Turning to `C1CN1P1(N2CC2)=NP(N2CC2)(N2CC2)=NP(N2CC2)(N2CC2)=NP(N2CC2)(N2CC2)=N1`, the T/C is, setting by setting: (dose: 1.0 mg/kg/injection, schedule: Q01DX009 (ip), vehicle: saline) 105 % of control; (dose: 1.0 mg/kg/injection, schedule: Q02DX009 (ip), vehicle: saline) 88 % of control; (dose: 2.0 mg/kg/injection, schedule: Q01DX009 (ip), vehicle: saline) 116 % of control; (dose: 2.0 mg/kg/injection, schedule: Q02DX009 (ip), vehicle: saline) 95 % of control and 105 % of control; (dose: 4.0 mg/kg/injection, schedule: Q01DX009 (ip), vehicle: saline) 120 % of control; (dose: 4.0 mg/kg/injection, schedule: Q02DX009 (ip), vehicle: saline) 87 % of control and 90 % of control. Moreover, the T/C is 108 % of control (dose: 8.0 mg/kg/injection, schedule: Q01DX009 (ip), vehicle: saline); 100 % of control (dose: 8.0 mg/kg/injection, schedule: Q02DX009 (ip), vehicle: saline); 93 % of control (dose: 16.0 mg/kg/injection, schedule: Q01DX009 (ip), vehicle: saline); 98 % of control and 100 % of control (dose: 16.0 mg/kg/injection, schedule: Q02DX009 (ip), vehicle: saline); 97 % of control (dose: 32.0 mg/kg/injection, schedule: Q01DX009 (ip), vehicle: saline); 87 % of control and 100 % of control (dose: 32.0 mg/kg/injection, schedule: Q02DX009 (ip), vehicle: saline). In addition, the T/C runs as follows: (dose: 64.0 mg/kg/injection, schedule: Q01DX009 (ip), vehicle: saline) 108 % of control; (dose: 64.0 mg/kg/injection, schedule: Q02DX009 (ip), vehicle: saline) 87 % of control and 94 % of control.
For the compound `CC[C@@H]1O[C@H]2O[C@@H](/C=C/C=C/C=C/c3oc(=O)cc(OC)c3C)[C@@H](O)[C@@]2(C)[C@]1(C)O`, the T/C is, setting by setting: (dose: 0.5 mg/kg/injection, schedule: Q01DX009 (ip), vehicle: Klucel (hydroxypropylcellulose) (HPC)) 94 % of control; (dose: 1.0 mg/kg/injection, schedule: Q01DX009 (ip), vehicle: Klucel (hydroxypropylcellulose) (HPC)) 90 % of control; (dose: 2.0 mg/kg/injection, schedule: Q01DX009 (ip), vehicle: Klucel (hydroxypropylcellulose) (HPC)) 92 % of control.
On to `CCCCCCC1CCC(N)CC1` (centres undefined), for which, under setting [6], the T/C is 86 % of control.
On to `CC(C)(C)OC(=O)NC(Cc1ccc(OCc2ccccc2)cc1)C(=O)O` (centres undefined), for which the T/C was 104 % of control under setting [7]; 97 % of control under setting [8]; 96 % of control under setting [9]; 95 % of control under setting [10]; 87 % of control under setting [11].
Take `BrCC[Se]c1ccccc1`: the T/C by setting is: under setting [7], 103 % of control; under setting [8], 95 % of control; under setting [9], 96 % of control; under setting [10], 104 % of control; under setting [11], 89 % of control.
In the case of `N#Cc1ccccc1C(C#N)c1ccc([N+](=O)[O-])cc1` (centres undefined), the T/C reads like this: under setting [11], 100 % of control; under setting [12], 90 % of control.
Take `COC(=O)C(Cc1c[nH]c2ccccc12)NC(=O)C(NC(=O)OC(C)(C)C)C(C)C` (centres undefined): the T/C under setting [3] was 91 % of control.
Regarding `COC(=O)C1CCCN1C(=O)CNC(=O)OC(C)(C)C` (stereo not drawn) (Boc-Gly-[ξP]-OMe), the T/C was 94 % of control under setting [13], 103 % of control under setting [14], 91 % of control under setting [15] and 88 % of control under setting [16].
Turning to `CCOC(=O)C1C2OC(=O)C(C(=O)C2CN(CCCl)CCCl)C1C1CC=C(CC2=CCC(C3C4C(=O)OC(C(CN(CCCl)CCCl)C4=O)C3C(=O)OCC)CC2)CC1` (centres undefined), the T/C reads like this: under setting [6], 107 % of control; under setting [8], 113 % of control; under setting [2], 118 % of control; under setting [9], 119 % of control; under setting [10], 150 % of control; under setting [1], 153 % of control. Besides, the T/C under setting [11] is 174 % of control.
On to `CC(=O)[O][Pb]([O]C(C)=O)([c]1ccccc1)[c]1ccccc1`, for which the T/C runs as follows: under setting [17], 98 % of control; under setting [6], 99 % of control; under setting [2], 103 % of control; under setting [3], 95 % of control.
As for `CC[n+]1ccc(/C=C\c2c(Cl)cccc2Cl)cc1`, the T/C was 94 % of control under setting [17], 88 % of control under setting [6] and 88 % of control under setting [2].
In the case of `CCCCN(C)N=Nc1c(C(N)=O)n[nH]c1C`, the T/C runs as follows: under setting [8], 110 % of control; under setting [9], 105 % of control; under setting [10], 122 % of control; (dose: 50.0 mg/kg/injection, schedule: Q04DX003 (ip), vehicle: saline with Tween-80) 100 % of control; (dose: 100.0 mg/kg/injection, schedule: Q04DX003 (ip), vehicle: saline with Tween-80) 105 % of control; (dose: 200.0 mg/kg/injection, schedule: Q04DX003 (ip), vehicle: saline with Tween-80) 113 % of control.
`ClC1CC[N-]CC1.ClC1CC[N-]CC1.[Cl][Pt+2]([Cl])([Cl])[Cl]`: the T/C (dose: 3.13 mg/kg/injection, schedule: Q01DX009 (ip), vehicle: saline with Tween-80) is 104 % of control; the T/C under setting [7] is 104 % of control; the T/C under setting [8] was 117 % of control.
With `CCCCOC(=O)c1ccc(NC(=O)Nc2ccccc2OC)cc1`, the T/C under setting [8] was 93 % of control, the T/C under setting [9] was 100 % of control and the T/C under setting [10] is 98 % of control.
Regarding `NC(CCC(=O)NCC(=O)O)C(=O)O` (centres undefined), the T/C is 92 % of control under setting [13], 91 % of control under setting [14], 101 % of control under setting [15] and 88 % of control under setting [16].
In the case of `Nc1ccc(F)cc1[N+](=O)[O-]`, the T/C is, setting by setting: under setting [4], 122 % of control; under setting [5], 105 % of control; (dose: 300.0 mg/kg/injection, schedule: Q01DX009 (ip), vehicle: Klucel (hydroxypropylcellulose) (HPC)) 102 % of control.
Turning to `Cc1ccc(NC(=O)Oc2ccc(Br)cc2Br)c([N+](=O)[O-])c1`, the T/C is, setting by setting: under setting [8], 97 % of control; under setting [9], 92 % of control; under setting [10], 86 % of control.
On to `CC1(C)C=C(C(Br)c2ccc(Cl)cc2)C(=O)c2ccccc21` (centres undefined), for which the T/C is 103 % of control under setting [10]; 106 % of control under setting [11]; 99 % of control under setting [12]; 97 % of control (dose: 400.0 mg/kg/injection, schedule: Q01DX009 (ip), vehicle: saline with Tween-80).
As for `CCCCCCCCCCCCCCCC[N+]1(C)CCN(SN2CC[N+](C)(CCCCCCCCCCCCCCCC)CC2)CC1`, the T/C is 93 % of control (dose: 1.56 mg/kg/injection, schedule: Q01DX009 (ip), vehicle: saline); 89 % of control (dose: 3.12 mg/kg/injection, schedule: Q01DX009 (ip), vehicle: saline); 87 % of control and 89 % of control (dose: 6.25 mg/kg/injection, schedule: Q01DX009 (ip), vehicle: saline).
On to `CN1CCC=C(C(=O)N2c3ccccc3CCc3ccccc32)C1`, for which the T/C is 97 % of control (dose: 25.0 mg/kg/injection, schedule: Q01DX009 (ip), vehicle: saline); 87 % of control under setting [13]; 91 % of control under setting [14].
